In patent US20050203124A1, “Compounds for the sustained reduction of body weight” (Boehringer Ingelheim International GmbH, priority 2004, published 2005):

Assay: Clinical studies: monitoring of body weight (vital sign) under multiple ascending doses
Format: in vivo, patients
Text: Clinical Studies have been carried out in order to compare the maintenance doses of the compounds of formula IA, including its metabolite IB, that were used in 3 studies.
The studies were randomized, double-blind, placebo-controlled per ascending dose group. The studies were designed to assess the safety, tolerability, phamacokinetics (PK), and preliminary efficacy of multiple ascending doses of the compound of formula IA in patients with possible Alzheimer's Disease (AD).
Two studies were performed consecutively with 0.125/0.25 and 0.5/1.0 mg of the compound of formula IA daily every morning to assess the safety and preliminary efficacy of multiple given for 28 days in those patients. After the completion of the first two studies a […] was initiated in elderly volunteers in order to investigate the safety and PK of a median dose of 0.75 mg of the compound of formula IA daily in the morning than were used in the first two studies. Depending on the maintenance dose an at least double loading dose was administrated for up to 6 days.
To determine the safety, tolerability of ascending multiple doses of the compound of formula IA (5 dose levels) given for 28 days, and to determine the preliminary multiple dose (4-week) pharmacokinetics (PK) of the compound of formula IA. […]

For `CCOC[C@H]1C2CCC(C[C@@H]1c1ccc(Cl)c(Cl)c1)N2C` (some centres unmarked) [Compound of formula IA], the “body weight under treatment (change in weight, FIGS. 3 and 4)” value (patients with possible Alzheimer's Disease / elderly volunteers, aged 55 to 80, 0.125 to 1.0 mg daily for 28 days, placebo-controlled) was “clearly reduces the bodyweight” and the “body weight after the treatment has been stopped (change in weight, FIGS. 5 and 6)” value (same studies, follow-up 56 to 70 days after beginning of the 28-day treatment) was “still further reduced”.
